Results published in US20120138290A1, “METHODS TO STIMULATE BIOGENIC METHANE PRODUCTION FROM HYDROCARBON-BEARING FORMATIONS” (SYNTHETIC GENOMICS, INC., priority 2010, published 2012).
Where “and” joins values, the source holds several entries; their conditions need not be identical. Equal entries are not always repeated.

What was measured:
[1] = system: functional microbial subcommunity (inoculum 2L-245 from upflow reactor); experiment: Stimulation of methane production: batch cultures with additive/stimulant, with or without coal, headspace methane by gas chromatography; type: cell-based
Protocol: The availability of an inoculum of a functional microbial subcommunity capable of producing methane from coal in vitro prompted laboratory experiments where various stimulants were tested for their effect on methane production. […] The experiments were conducted at three different levels of additives (0.5×, 1× and 2×): additives (stimulants) were added in the following three concentrations. […] DMY media: DM media composition in milli-Q water is made as described above with the addition of 0.5 g/L yeast extract. DMSC media: DM media in milli-Q water is made as described above with the addition of 100 g/L sterile, anaerobic, sub-bituminous coal from the San Juan Basin. DMSCY media: DM media in milli-Q water is made as described above with the addition of 100 g/L sterile, anaerobic, sub-bituminous coal from the San Juan Basin and 0.5 g/L yeast extract. The coal used in these experiments originated from the San Juan Basin (BHP Billiton, Tex.). […] Each stimulant was tested in the presence or absence of coal. The experiments were conducted at three different concentrations of additives (0.5× (low), 1× (medium), and 2× (high)) as described above. Each sample type was conducted in 4 replicates. […] Control sample types were media alone, media plus coal, media plus yeast extract and media plus coal and yeast extract. At each time point, headspace measurements were taken using gas chromatography (microGC […], Agilent Technologies, Inc.). […] Each experiment was performed in quadruplicate. Methane at time 0 was assumed to be 0%.

[2] = system: formate-utilizing, methane-producing species in the enrichment culture; experiment: Stimulation of methane production by vanadium in cultures utilizing formate; type: cell-based; conditions: for Methane (% in head space volume of 21 ml): DM media with 50 mM formate, 48 hours at 50° C., replicate cultures
Protocol: The anaerobic reactor system described above in Example 1 contains formate-utilizing, methane-producing species in the enrichment culture. Methanogens in the culture were previously identified by 16sRNA sequencing.
A 10% vol./vol. inoculum was taken from the anaerobic reactor system described above in Example 1, and the effect of vanadium on methane production by methanogens utilizing formate as a carbon and energy source was determined.
Cultures, established with DM media (prepared as described above) containing 50 mM formate as the sole carbon and energy source, were sub-cultured with the same media (in the absence of vanadium) or media supplemented with either 5 or 10 μM VCl3. Methane production was measured after 48 hours of growth at 50° C.

[3] = DMSCY (coal), 5 μM VCl3, week 1
[4] = DMSCY (coal), 5 μM VCl3, week 3
[5] = DMSCY (coal), 5 μM VCl3, week 5
[6] = DMSCY (coal), 10 μM VCl3, week 1
[7] = DMSCY (coal), 10 μM VCl3, week 3
[8] = DMSCY (coal), 10 μM VCl3, week 5
[9] = DMY (no coal), 5 μM VCl3, week 1
[10] = DMY (no coal), 5 μM VCl3, week 3
[11] = DMY (no coal), 5 μM VCl3, week 5
[12] = DMY (no coal), 10 μM VCl3, week 1
[13] = DMY (no coal), 10 μM VCl3, week 3
[14] = DMY (no coal), 10 μM VCl3, week 5
[15] = DMSCY (coal), 2.0 mM KCl, week 1
[16] = DMSCY (coal), 2.0 mM KCl, week 3
[17] = DMSCY (coal), 2.0 mM KCl, week 5
[18] = DMSCY (coal), 4.0 mM KCl, week 1
[19] = DMSCY (coal), 4.0 mM KCl, week 3
[20] = DMSCY (coal), 4.0 mM KCl, week 5
[21] = DMSCY (coal), 8.0 mM KCl, week 1
[22] = DMSCY (coal), 8.0 mM KCl, week 3
[23] = DMSCY (coal), 8.0 mM KCl, week 5
[24] = DMY (no coal), 2.0 mM KCl, week 1
[25] = DMY (no coal), 2.0 mM KCl, week 3
[26] = DMY (no coal), 2.0 mM KCl, week 5
[27] = DMY (no coal), 4.0 mM KCl, week 1
[28] = DMY (no coal), 4.0 mM KCl, week 3
[29] = DMY (no coal), 4.0 mM KCl, week 5
[30] = DMY (no coal), 8.0 mM KCl, week 1
[31] = DMY (no coal), 8.0 mM KCl, week 3
[32] = DMY (no coal), 8.0 mM KCl, week 5

[Cl-].[Cl-].[Cl-].[V+3] [VCl3, vanadium (III) chloride]
methane production (Average) [1, 3]: 0.27
methane production (RepA-Rep D) [1, 3]: 0.30 and 0.26 and 0.25
methane production (Average) [1, 4]: 1.50
methane production (RepA-Rep D) [1, 4]: 1.51 and 1.40 and 1.21 and 1.88
methane production (Average) [1, 5]: 2.44
methane production (RepA-Rep D) [1, 5]: 2.41 and 2.28 and 1.95 and 3.13
methane production (Average) [1, 6]: 0.25
methane production (RepA-Rep D) [1, 6]: 0.29 and 0.25 and 0.24
methane production (Average) [1, 7]: 1.06
methane production (RepA-Rep D) [1, 7]: 1.15 and 1.04 and 1.01
methane production (Average) [1, 8]: 1.36
methane production (RepA-Rep D) [1, 8]: 1.49 and 1.31 and 1.30 and 1.33
methane production (Average) [1, 9]: 0.20
methane production (RepA-Rep D) [1, 9]: 0.21 and 0.20
methane production (Average) [1, 10]: 0.71
methane production (RepA-Rep D) [1, 10]: 0.78 and 0.69 and 0.67 and 0.80
methane production (Average) [1, 11]: 0.70
methane production (RepA-Rep D) [1, 11]: 0.75 and 0.70 and 0.68 and 0.67
methane production (Average) [1, 12]: 0.22
methane production (RepA-Rep D) [1, 12]: 0.21 and 0.251 and 0.19 and 0.22
methane production (Average) [1, 13]: 0.77
methane production (RepA-Rep D) [1, 13]: 0.85 and 0.7495 and 0.70 and 0.78
methane production (Average) [1, 14]: 0.76
methane production (RepA-Rep D) [1, 14]: 0.76 and 0.82 and 0.70 and 0.77
effect on the production of methane ([1]; intermediate concentration of the stimulant (FIGS. 1A, 1B, 2A)): statistically significant positive effect
dependence of methane production on coal ([1]; with or without coal): only observed in the presence of coal
Methane (% in head space volume of 21 ml) ([2]; 5 μM VCl3 final): 2.0% and 1.2%
Methane (% in head space volume of 21 ml) ([2]; 10 μM VCl3 final): 1.9% and 1.4%
methane formation relative to cultures without VCl3 (average) ([2]; VCl3-supplemented cultures (5 or 10 μM), 50 mM formate, 48 hours): approximately 2 fold

[Cl-].[K+] [KCl, potassium chloride]
methane production (Average) [1, 15]: 0.34
methane production (RepA-Rep D) [1, 15]: 0.35 and 0.30 and 0.32 and 0.39
methane production (Average) [1, 16]: 1.14
methane production (RepA-Rep D) [1, 16]: 1.12 and 1.25 and 1.04 and 1.16
methane production (Average) [1, 17]: 1.39
methane production (RepA-Rep D) [1, 17]: 1.32 and 1.49 and 1.30 and 1.47
methane production (Average) [1, 18]: 0.4
methane production (RepA-Rep D) [1, 18]: 0.44 and 0.43 and 0.46
methane production (Average) [1, 19]: 1.50
methane production (RepA-Rep D) [1, 19]: 1.35 and 1.46 and 1.60 and 1.57
methane production (Average) [1, 20]: 1.69
methane production (RepA-Rep D) [1, 20]: 1.59 and 1.87 and 1.70
methane production (Average) [1, 21]: 0.3936
methane production (RepA-Rep D) [1, 21]: 0.3871 and 0.3364 and 0.4219 and 0.429
methane production (Average) [1, 22]: 1.327
methane production (RepA-Rep D) [1, 22]: 1.346 and 1.301 and 1.36 and 1.304
methane production (Average) [1, 23]: 1.562
methane production (RepA-Rep D) [1, 23]: 1.564 and 1.478 and 1.557 and 1.649
methane production (Average) [1, 24]: 0.30
methane production (RepA-Rep D) [1, 24]: 0.29 and 0.30 and 0.32
methane production (Average) [1, 25]: 0.81
methane production (RepA-Rep D) [1, 25]: 0.99 and 0.79 and 0.78 and 0.70
methane production (Average) [1, 26]: 0.77
methane production (RepA-Rep D) [1, 26]: 0.78 and 0.75 and 0.79
methane production (Average) [1, 27]: 0.23
methane production (RepA-Rep D) [1, 27]: 0.23 and 0.22 and 0.24
methane production (Average) [1, 28]: 0.26
methane production (RepA-Rep D) [1, 28]: 0.24 and 0.26 and 0.29
methane production (Average) [1, 29]: 0.29
methane production (RepA-Rep D) [1, 29]: 0.23 and 0.26 and 0.40
methane production (Average) [1, 30]: 0.2015
methane production (RepA-Rep D) [1, 30]: 0.2005 and 0.2037 and 0.195 and 0.2068
methane production (Average) [1, 31]: 0.2178
methane production (RepA-Rep D) [1, 31]: 0.2211 and 0.2119 and 0.2206 and 0.2177
methane production (Average) [1, 32]: 0.2151
methane production (RepA-Rep D) [1, 32]: 0.2177 and 0.2082 and 0.2231 and 0.2112
effect on methanogenesis ([1]; absence of coal (DMY), >2 mM KCl): greatly decreased methanogenesis
trend in methane production ([1]; week 5, KCl-containing samples): decreasing trend
